In patent publication US20260077071A1, “Targeted Delivery of Theranostic Agents” (Peter MacCallum Cancer Institute, priority 2022, published 2026):
Read-outs that look alike come from different tables or passages of the source. Square brackets hold non-standard residues; d marks the D form. Peptide text beside a SMILES is read from it. * marks the point of attachment. DOTA = O=C(O)CN1CCN(CC(=O)O)CCN(CC(=O)*)CCN(CC(=O)O)CC1; Phe(3,4,5-F3) = N[C@@H](Cc1cc(F)c(F)c(F)c1)C(=O)O; Phe(4-CF3) = N[C@@H](Cc1ccc(C(F)(F)F)cc1)C(=O)O; Phe(F5) = N[C@@H](Cc1c(F)c(F)c(F)c(F)c1F)C(=O)O; Phe(3,4-F2) = N[C@@H](Cc1ccc(F)c(F)c1)C(=O)O; Phe(4-Ac) = CC(=O)c1ccc(C[C@H](N)C(=O)O)cc1; Phe(4-CN) = N#Cc1ccc(C[C@H](N)C(=O)O)cc1; Phe(3-F) = N[C@@H](Cc1cccc(F)c1)C(=O)O; Phe(4-F) = N[C@@H](Cc1ccc(F)cc1)C(=O)O; 1Nal = N[C@@H](Cc1cccc2ccccc12)C(=O)O; NMeF = CN[C@@H](Cc1ccccc1)C(=O)O; NMeNle = CCCC[C@H](NC)C(=O)O; Sar = CNCC(=O)O

Target: T1, human full-length CCK-2 receptor (Homo sapiens, UniProt P32239)
T1 construct: stably transfected to over-express the human full-length CCK-2 receptor (A431-CCK-2R); expressed in transfected cells
T1 sequence (P32239 1-447): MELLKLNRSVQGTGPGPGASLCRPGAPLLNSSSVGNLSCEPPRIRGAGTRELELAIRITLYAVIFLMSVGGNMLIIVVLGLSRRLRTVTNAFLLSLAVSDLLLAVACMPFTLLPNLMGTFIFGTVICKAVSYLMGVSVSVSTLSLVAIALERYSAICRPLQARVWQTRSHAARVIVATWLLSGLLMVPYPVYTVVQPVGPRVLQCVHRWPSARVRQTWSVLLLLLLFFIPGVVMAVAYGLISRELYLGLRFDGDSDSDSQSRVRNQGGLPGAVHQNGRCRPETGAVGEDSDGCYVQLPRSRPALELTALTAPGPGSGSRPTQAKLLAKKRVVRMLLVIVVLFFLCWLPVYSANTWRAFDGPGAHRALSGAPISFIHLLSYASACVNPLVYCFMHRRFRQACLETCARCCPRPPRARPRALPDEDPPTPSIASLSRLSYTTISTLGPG
Assay: Competitive ligand binding against [^177Lu]Lu-DOTA-CP04 in A431-CCK-2R cells
Protocol: CCK-2 receptor binding experiments were conducted using A431 (human epidermoid carcinoma) cells stably transfected to over-express the human full-length CCK-2 receptor (A431-CCK-2R). As a negative control, A431 cells stably transfected with an empty vector were analysed simultaneously (A431-EV). A431 cells were maintained in DMEM (Gibco, Australia) media supplemented with 10% foetal calf serum and 250 μg/mL G418 as described previously (Aloj L, et al., J Nucl Med., 2004, Mar; 45(3), 485-94). The affinity of peptides for the CCK-2R was evaluated using competitive binding assays against [^177Lu]Lu-DOTA-CP04 in A431-CCK-2R cells. Briefly, 48 h before the experiment cells were plated at a density of 650,000 cells per well in 6 well plates. On the day of the experiment the peptides were diluted in DMEM supplemented with 1% foetal calf serum to at least 7 different concentrations (0-400 nM) and approximately 50,000 cpm of [^177Lu]Lu-DOTA-CP04 was added to each dilution. Cells were washed twice in ice-cold binding buffer (DMEM supplemented with 1% foetal calf serum) and resuspended in 1.5 mL of the pre-prepared compound mix before being incubated at 37° C. for 1 h. Post-incubation the media was removed and kept for analysis (unbound fraction) and the cells were washed twice in ice-cold binding buffer, which was pooled with the unbound fraction. Finally, 1 M NaOH was added to the cells and allowed to incubate for 5 min before lysates were collected (bound fraction). A small volume of lysate was kept aside to determine protein concentration using the Pierce® BCA protein assay kit (Thermo Fisher, Australia). All samples were analysed using the Perkin Elmer 2480 Wizard2™ gamma counter (PerkinElmer, Massachusetts, USA) and were normalised according to protein concentration. Half-maximal inhibitory concentrations (IC50) were determined using nonlinear regression calculated using GraphPad Prism Software (GraphPad Software, California, USA).
The compounds were evaluated for their ability to disrupt the binding between CCK-2 receptor (CCK-2R) and [^177Lu]Lu-DOTA-CP04 using the methodology described above and compared to comparative example-2 (FIG. 2; Table 5).

[1] = modified peptides based on Peptide C (Table 4), read-out: IC50
[2] = ^natGa chelated DOTA-compounds based on Peptide C (Table 5), read-out: IC50

Row | SMILES | IC50 [1] [nM] | also measured
1 | CCCC[C@@H](C(=O)N[C@@H](CC(=O)O)C(=O)N[C@@H](Cc1cc(F)c(F)c(F)c1)C(N)=O)N(C)C(=O)[C@H](Cc1c[nH]c2ccccc12)NC(=O)CN(C)C(=O)[C@H](Cc1ccc(O)cc1)NC(=O)[C@H](C)NC(=O)[C@@H](CCC(=O)O)NC(=O)[C@@H](CCC(=O)O)NC(=O)[C@@H](CCC(=O)O)NC(=O)[C@@H](C)NC(=O)[C@@H](CCC(=O)O)NC(=O)[C@H](N)CCC(=O)O [N] (H-[dE][dE][dA][dE][dE][dE]AY[Sar]W[NMeNle]D[Phe(3,4,5-F3)]-NH2; N-terminus assumed) | 0.444 ± 0.032 | 
2 | CCCC[C@@H](C(=O)N[C@@H](CC(=O)O)C(=O)N[C@@H](Cc1ccc(F)cc1)C(N)=O)N(C)C(=O)[C@H](Cc1c[nH]c2ccccc12)NC(=O)CN(C)C(=O)[C@H](Cc1ccc(O)cc1)NC(=O)[C@H](C)NC(=O)[C@@H](CCC(=O)O)NC(=O)[C@@H](CCC(=O)O)NC(=O)[C@@H](CCC(=O)O)NC(=O)[C@@H](C)NC(=O)[C@@H](CCC(=O)O)NC(=O)[C@H](N)CCC(=O)O [O] (H-[dE][dE][dA][dE][dE][dE]AY[Sar]W[NMeNle]D[Phe(4-F)]-NH2; N-terminus assumed) | 0.368 ± 0.04 | 
3 | CCCC[C@@H](C(=O)N[C@@H](CC(=O)O)C(=O)N[C@@H](Cc1ccc(C(F)(F)F)cc1)C(N)=O)N(C)C(=O)[C@H](Cc1c[nH]c2ccccc12)NC(=O)CN(C)C(=O)[C@H](Cc1ccc(O)cc1)NC(=O)[C@H](C)NC(=O)[C@@H](CCC(=O)O)NC(=O)[C@@H](CCC(=O)O)NC(=O)[C@@H](CCC(=O)O)NC(=O)[C@@H](C)NC(=O)[C@@H](CCC(=O)O)NC(=O)[C@H](N)CCC(=O)O [P] (H-[dE][dE][dA][dE][dE][dE]AY[Sar]W[NMeNle]D[Phe(4-CF3)]-NH2; N-terminus assumed) | 1.14 | 
4 | CCCC[C@@H](C(=O)N[C@@H](CC(=O)O)C(=O)N[C@@H](Cc1cccc2ccccc12)C(N)=O)N(C)C(=O)[C@H](Cc1c[nH]c2ccccc12)NC(=O)CN(C)C(=O)[C@H](Cc1ccc(O)cc1)NC(=O)[C@H](C)NC(=O)[C@@H](CCC(=O)O)NC(=O)[C@@H](CCC(=O)O)NC(=O)[C@@H](CCC(=O)O)NC(=O)[C@@H](CCC(=O)O)NC(=O)[C@@H](CCC(=O)O)NC(=O)[C@@H](C)N [Peptide A] (H-[dA][dE][dE][dE][dE][dE]AY[Sar]W[NMeNle]D[1Nal]-NH2) |  | loss of binding affinity / activity (D-Ala analogue versus baseline comparative example-1): greater than 10 fold
5 | CCCC[C@@H](C(=O)N[C@@H](CC(=O)O)C(=O)N[C@@H](Cc1cccc2ccccc12)C(N)=O)N(C)C(=O)[C@H](Cc1c[nH]c2ccccc12)NC(=O)CN(C)C(=O)[C@H](Cc1ccc(O)cc1)NC(=O)[C@H](C)NC(=O)[C@@H](CCC(=O)O)NC(=O)[C@@H](CCC(=O)O)NC(=O)[C@@H](CCC(=O)O)NC(=O)[C@@H](C)NC(=O)[C@@H](CCC(=O)O)NC(=O)[C@H](N)CCC(=O)O [Peptide C] (H-[dE][dE][dA][dE][dE][dE]AY[Sar]W[NMeNle]D[1Nal]-NH2) |  | IC50 (D-Ala substituted peptides (Table 2), against [^177Lu]Lu-DOTA-CP04 in A431-CCK-2R cells, read-out: IC50): 0.18 nM; improvement upon the activity of CP04 (versus CP04): greater than 10 fold; affinity exceeding that of the comparative peptide (versus comparative example-1): ~2 fold
6 | CCCC[C@@H](C(=O)N[C@@H](CC(=O)O)C(=O)N[C@@H](Cc1ccc(O)cc1)C(N)=O)N(C)C(=O)[C@H](Cc1c[nH]c2ccccc12)NC(=O)CN(C)C(=O)[C@H](Cc1ccc(O)cc1)NC(=O)[C@H](C)NC(=O)[C@@H](CCC(=O)O)NC(=O)[C@@H](CCC(=O)O)NC(=O)[C@@H](CCC(=O)O)NC(=O)[C@@H](C)NC(=O)[C@@H](CCC(=O)O)NC(=O)[C@H](N)CCC(=O)O [Peptide R] (H-[dE][dE][dA][dE][dE][dE]AY[Sar]W[NMeNle]DY-NH2; N-terminus assumed) | 1.15 ± 0.096 | 
7 | CCCC[C@@H](C(=O)N[C@@H](CC(=O)O)C(=O)N[C@@H](Cc1ccc(F)c(F)c1)C(N)=O)N(C)C(=O)[C@H](Cc1c[nH]c2ccccc12)NC(=O)CN(C)C(=O)[C@H](Cc1ccc(O)cc1)NC(=O)[C@H](C)NC(=O)[C@@H](CCC(=O)O)NC(=O)[C@@H](CCC(=O)O)NC(=O)[C@@H](CCC(=O)O)NC(=O)[C@@H](C)NC(=O)[C@@H](CCC(=O)O)NC(=O)[C@H](N)CCC(=O)O [Peptide S] (H-[dE][dE][dA][dE][dE][dE]AY[Sar]W[NMeNle]D[Phe(3,4-F2)]-NH2; N-terminus assumed) |  | IC50: 2.66 ± 0.226 nM
8 | CCCC[C@@H](C(=O)N[C@@H](CC(=O)O)C(=O)N[C@@H](Cc1ccc(C#N)cc1)C(N)=O)N(C)C(=O)[C@H](Cc1c[nH]c2ccccc12)NC(=O)CN(C)C(=O)[C@H](Cc1ccc(O)cc1)NC(=O)[C@H](C)NC(=O)[C@@H](CCC(=O)O)NC(=O)[C@@H](CCC(=O)O)NC(=O)[C@@H](CCC(=O)O)NC(=O)[C@@H](C)NC(=O)[C@@H](CCC(=O)O)NC(=O)[C@H](N)CCC(=O)O [Q] (H-[dE][dE][dA][dE][dE][dE]AY[Sar]W[NMeNle]D[Phe(4-CN)]-NH2; N-terminus assumed) | 1.57 ± 0.089 | 
9 | CCCC[C@@H](C(=O)N[C@@H](CC(=O)O)C(=O)N[C@@H](Cc1c(F)c(F)c(F)c(F)c1F)C(N)=O)N(C)C(=O)[C@H](Cc1c[nH]c2ccccc12)NC(=O)CN(C)C(=O)[C@H](Cc1ccc(O)cc1)NC(=O)[C@H](C)NC(=O)[C@@H](CCC(=O)O)NC(=O)[C@@H](CCC(=O)O)NC(=O)[C@@H](CCC(=O)O)NC(=O)[C@@H](C)NC(=O)[C@@H](CCC(=O)O)NC(=O)[C@H](N)CCC(=O)O [T] (H-[dE][dE][dA][dE][dE][dE]AY[Sar]W[NMeNle]D[Phe(F5)]-NH2; N-terminus assumed) | 0.607 ± 0.052 | 
10 | CCCC[C@@H](C(=O)N[C@@H](CC(=O)O)C(=O)N[C@@H](Cc1cccc(F)c1)C(N)=O)N(C)C(=O)[C@H](Cc1c[nH]c2ccccc12)NC(=O)CN(C)C(=O)[C@H](Cc1ccc(O)cc1)NC(=O)[C@H](C)NC(=O)[C@@H](CCC(=O)O)NC(=O)[C@@H](CCC(=O)O)NC(=O)[C@@H](CCC(=O)O)NC(=O)[C@@H](C)NC(=O)[C@@H](CCC(=O)O)NC(=O)[C@H](N)CCC(=O)O [U] (H-[dE][dE][dA][dE][dE][dE]AY[Sar]W[NMeNle]D[Phe(3-F)]-NH2; N-terminus assumed) | 0.305 ± 0.013 | 
11 | CCCC[C@@H](C(=O)N[C@@H](CC(=O)O)C(=O)N[C@@H](Cc1ccc(C(C)=O)cc1)C(N)=O)N(C)C(=O)[C@H](Cc1c[nH]c2ccccc12)NC(=O)CN(C)C(=O)[C@H](Cc1ccc(O)cc1)NC(=O)[C@H](C)NC(=O)[C@@H](CCC(=O)O)NC(=O)[C@@H](CCC(=O)O)NC(=O)[C@@H](CCC(=O)O)NC(=O)[C@@H](C)NC(=O)[C@@H](CCC(=O)O)NC(=O)[C@H](N)CCC(=O)O [V] (H-[dE][dE][dA][dE][dE][dE]AY[Sar]W[NMeNle]D[Phe(4-Ac)]-NH2; N-terminus assumed) | 0.948 ± 0.052 | 
12 | CCCC[C@@H](C(=O)N[C@@H](CC(=O)O)C(=O)N[C@@H](Cc1cccc2ccccc12)C(N)=O)N(C)C(=O)[C@H](Cc1c[nH]c2ccccc12)NC(=O)CN(C)C(=O)[C@H](Cc1ccc(O)cc1)NC(=O)[C@H](C)NC(=O)[C@@H](CCC(=O)O)NC(=O)[C@@H](CCC(=O)O)NC(=O)[C@@H](CCC(=O)O)NC(=O)[C@@H](C)NC(=O)[C@@H](CCC(=O)O)NC(=O)[C@@H](CCC(=O)O)NC(=O)CN1CCN(CC(=O)O)CCN(CC(=O)O)CCN(CC(=O)O)CC1 [^natGa-1, metal not drawn] ({DOTA}-[dE][dE][dA][dE][dE][dE]AY[Sar]W[NMeNle]D[1Nal]-NH2) |  | IC50 [2]: 0.08 nM
13 | CCCC[C@@H](C(=O)N[C@@H](CC(=O)O)C(=O)N(C)[C@@H](Cc1ccccc1)C(N)=O)N(C)C(=O)[C@H](Cc1c[nH]c2ccccc12)NC(=O)CN(C)C(=O)[C@H](Cc1ccc(O)cc1)NC(=O)[C@H](C)NC(=O)[C@@H](CCC(=O)O)NC(=O)[C@@H](CCC(=O)O)NC(=O)[C@@H](CCC(=O)O)NC(=O)[C@@H](C)NC(=O)[C@@H](CCC(=O)O)NC(=O)[C@@H](CCC(=O)O)NC(=O)CN1CCN(CC(=O)O)CCN(CC(=O)O)CCN(CC(=O)O)CC1 [^natGa-2, metal not drawn] ({DOTA}-[dE][dE][dA][dE][dE][dE]AY[Sar]W[NMeNle]D[NMeF]-NH2) |  | IC50 [2]: 0.185 nM
